These results are taken from ChEMBL document CHEMBL4004883, “Biologically active perspective synthesis of heteroannulated 8-nitroquinolines with green chemistry approach” (Bioorg Med Chem Lett, 2017).

≈ marks a conversion by molar mass, not a printed value.

The subject of one assay is MCF7. Description: Cytotoxicity against human MCF7 cells assessed as decrease in cell viability after 48 hrs by MTT assay. It is filed as functional, cell-based. The conditions noted are these: MCF7, 48 h.
Assay [1] in a line: Antioxidant activity assessed as total antioxidant capacity measured as ascorbic acid equivalents at 100 ug/ml after 90 mins by phosphomolybdenum method. It is filed as functional.
The subject of assay [2] is Staphylococcus aureus. Description: Antibacterial activity against Staphylococcus aureus MTCC 96 incubated for 24 hrs under dark condition by microwell dilution method. In kind it is functional. Particulars: MTCC 96, 24 h.
Assay [3] has as its system Bacillus subtilis. The experiment in a line: Antibacterial activity against Bacillus subtilis MTCC 121 at 100 ug incubated for 24 hrs under dark condition by agar well diffusion method. It is filed as functional. The conditions noted are these: MTCC 121, 24 h, read-out: IZ.
The next assay concerns A549. Description: Cytotoxicity against human A549 cells assessed as decrease in cell viability after 48 hrs by MTT assay. Particulars: A549, 48 h. It is filed as functional, cell-based.
Assay [4] deals with Pseudomonas aeruginosa. The experiment in a line: Antibacterial activity against Pseudomonas aeruginosa MTCC 102 incubated for 24 hrs under dark condition by microwell dilution method. It is filed as functional. Particulars: MTCC 102, 24 h.
A short description of assay [5]: Antioxidant activity assessed as DPPH radical scavenging activity after 20 mins by UV/VIS Spectrophotometric method. In kind it is functional.
Assay [6] in a line: Antioxidant activity assessed as assessed as ferric ion reducing activity by measuring absorbance at 700 nm at 60 ug/ml after 20 mins by spectrophotometric method. In kind it is functional.
The nature of assay [7]: Antioxidant activity assessed as total antioxidant capacity measured as ascorbic acid equivalents at 20 ug/ml after 90 mins by phosphomolybdenum method. In kind it is functional.
Assay [8] deals with Staphylococcus aureus. The experiment in a line: Antibacterial activity against Staphylococcus aureus MTCC 96 at 100 ug incubated for 24 hrs under dark condition by agar well diffusion method. Particulars: MTCC 96, 24 h, read-out: IZ. In kind it is functional.
For assay [9], the system named is Escherichia coli. The experiment in a line: Antibacterial activity against Escherichia coli MTCC 1652 at 100 ug incubated for 24 hrs under dark condition by agar well diffusion method. In kind it is functional. The conditions noted are these: MTCC 1652, 24 h, read-out: IZ.
Assay [10] deals with Bacillus subtilis. The experiment in a line: Antibacterial activity against Bacillus subtilis MTCC 121 incubated for 24 hrs under dark condition by microwell dilution method. Particulars: MTCC 121, 24 h. In kind it is functional.
Assay [11] concerns Pseudomonas aeruginosa. The experiment in a line: Antibacterial activity against Pseudomonas aeruginosa MTCC 102 at 100 ug incubated for 24 hrs under dark condition by agar well diffusion method. Particulars: MTCC 102, 24 h, read-out: IZ. In kind it is functional.
Assay [12] can be described thus: Antioxidant activity assessed as assessed as ferric ion reducing activity by measuring absorbance at 700 nm at 100 ug/ml after 20 mins by spectrophotometric method. In kind it is functional.
The nature of assay [13]: Antioxidant activity assessed as assessed as ferric ion reducing activity by measuring absorbance at 700 nm at 20 ug/ml after 20 mins by spectrophotometric method. In kind it is functional.
For assay [14], the system named is Escherichia coli. Description: Antibacterial activity against Escherichia coli MTCC 1652 incubated for 24 hrs under dark condition by microwell dilution method. It is filed as functional. The conditions noted are these: MTCC 1652, 24 h.
Assay [15] can be described thus: Antioxidant activity assessed as total antioxidant capacity measured as ascorbic acid equivalents at 60 ug/ml after 90 mins by phosphomolybdenum method. In kind it is functional.

Turning to `O=[N+]([O-])c1cccc2c1NCC1C2=NN(c2ccccc2)C1c1ccccc1` (stereo not drawn), the half-inhibitory concentration (IC50) in the assay on MCF7 was determined as 53.4 µM; with A549, 59.8 µM; in [5] it was 146.85 µg/mL (≈ 396 µM). Moreover, the Activity in [1] came out at 14.9 µgequiv/ml; in assay [7], 5.18 µgequiv/ml; in assay [15], 10.8 µgequiv/ml. In addition, the MIC is 60 µg/mL (≈ 162 µM) with Staphylococcus aureus [2], 150 µg/mL (≈ 405 µM) in the assay on Pseudomonas aeruginosa [4], 60 µg/mL (≈ 162 µM) in the assay on Bacillus subtilis [10] and 60 µg/mL (≈ 162 µM) against Escherichia coli [14]. In addition, the zone of inhibition at 100 µg/disc in the assay with Bacillus subtilis [3] amounted to 8 mm; with Staphylococcus aureus [8], 8 mm; with Escherichia coli [9], 12 mm; in the assay on Pseudomonas aeruginosa [11], 14 mm. For the same compound, the OD came out at 0.08 in assay [6], 0.096 in [12] and 0.075 in [13].
With `COc1ccc(C2C3CNc4c(cccc4[N+](=O)[O-])C3=NN2c2ccccc2)cc1` (stereo not drawn), the values for the half-inhibitory concentration (IC50) (in the assay on MCF7; with A549; in assay [5]) were 31.3 µM, 40.2 µM and 138.8 µg/mL (≈ 347 µM), respectively. Further, the Activity in assay [1] was found to be 14.3 µgequiv/ml; in assay [7], 4.95 µgequiv/ml; in assay [15], 10.5 µgequiv/ml. The MIC is 17.5 µg/mL (≈ 43.7 µM) with Staphylococcus aureus [2], 200 µg/mL (≈ 499 µM) in the assay on Pseudomonas aeruginosa [4], 20 µg/mL (≈ 49.9 µM) against Bacillus subtilis [10] and 42.5 µg/mL (≈ 106 µM) with Escherichia coli [14]. Further, the zone of inhibition at 100 µg/disc in the assay with Bacillus subtilis [3] turned out to be 17 mm; in the assay with Staphylococcus aureus [8] it was 15 mm; in the assay on Escherichia coli [9], 14 mm; in the assay on Pseudomonas aeruginosa [11], 10 mm. In addition, the OD is 0.134 in assay [6], 0.192 in assay [12] and 0.091 in assay [13].
As for `O=[N+]([O-])c1cccc2c1NCC1C2=NN(c2ccccc2)C1c1ccc(F)cc1` (stereo not drawn), the IC50 in the assay on MCF7 was 46 µM; in the assay with A549 it was 23.2 µM; in [5] it was 205.13 µg/mL (≈ 528 µM). For the same compound, the results for the Activity in assay [1], in assay [7] and in [15] were 11.2 µgequiv/ml, 4.02 µgequiv/ml and 7.36 µgequiv/ml, respectively. The minimal inhibitory concentration (MIC) against Staphylococcus aureus [2] was found to be 10 µg/mL (≈ 25.7 µM); in the assay with Pseudomonas aeruginosa [4], 55.5 µg/mL (≈ 143 µM); in the assay with Bacillus subtilis [10], 12.5 µg/mL (≈ 32.2 µM); with Escherichia coli [14], 17 µg/mL (≈ 43.8 µM). The zone of inhibition at 100 µg/disc in the assay with Bacillus subtilis [3] was found to be 18 mm; with Staphylococcus aureus [8], 20 mm; in the assay with Escherichia coli [9], 21 mm; in the assay on Pseudomonas aeruginosa [11], 18 mm. Besides, the values for the OD in [6], in assay [12] and in assay [13] were 0.1, 0.112 and 0.092, respectively.
As to `O=[N+]([O-])c1cccc2c1NCC1C2=NN(c2ccccc2)C1c1ccc(Cl)cc1` (stereo not drawn), the IC50 in the assay on MCF7 was 41.4 µM; in the assay with A549, 28.7 µM; in assay [5] it was 202.18 µg/mL (≈ 499 µM). In addition, the Activity in assay [1] amounted to 10.4 µgequiv/ml; in [7], 4.12 µgequiv/ml; in [15], 6.17 µgequiv/ml. In addition, the MIC against Staphylococcus aureus [2] was found to be 15 µg/mL (≈ 37.1 µM); against Pseudomonas aeruginosa [4], 100 µg/mL (≈ 247 µM); in the assay with Bacillus subtilis [10], 15 µg/mL (≈ 37.1 µM); in the assay with Escherichia coli [14] it was 34 µg/mL (≈ 84 µM). Further, the zone of inhibition at 100 µg/disc in the assay on Bacillus subtilis [3] is 16 mm; in the assay on Staphylococcus aureus [8], 17 mm; in the assay with Escherichia coli [9] it was 17 mm; in the assay on Pseudomonas aeruginosa [11] it was 13 mm. In addition, the OD in assay [6] turned out to be 0.09; in assay [12], 0.101; in assay [13], 0.082.
As to `Cc1ccc(C2C3CNc4c(cccc4[N+](=O)[O-])C3=NN2c2ccccc2)cc1` (stereo not drawn), the results for the IC50 (with MCF7; in the assay on A549; in [5]) were 72.8 µM, 45.8 µM and 185.06 µg/mL (≈ 481 µM), respectively. The figures for the Activity in [1], in [7] and in assay [15] were 10.2 µgequiv/ml, 3.33 µgequiv/ml and 5.23 µgequiv/ml, respectively. Further, the MIC in the assay with Staphylococcus aureus [2] worked out at 50 µg/mL (≈ 130 µM); in the assay with Pseudomonas aeruginosa [4], 200 µg/mL (≈ 520 µM); against Bacillus subtilis [10] it was 50 µg/mL (≈ 130 µM); in the assay on Escherichia coli [14] it was 80.5 µg/mL (≈ 209 µM). For the same compound, the zone of inhibition at 100 µg/disc turned out to be 12 mm with Bacillus subtilis [3], 12 mm in the assay on Staphylococcus aureus [8], 10 mm with Escherichia coli [9] and 8 mm with Pseudomonas aeruginosa [11]. Moreover, the OD in [6] amounted to 0.096; in assay [12] it was 0.145; in assay [13], 0.082.
Consider `CCOc1ccc(C2C3CNc4c(cccc4[N+](=O)[O-])C3=NN2c2ccccc2)c(OCC)c1` (stereo not drawn), for which the figures for the IC50 (with MCF7; with A549; in [5]) were 65.7 µM, 50.9 µM and 170.8 µg/mL (≈ 373 µM), respectively. For the same compound, the Activity in assay [1] came out at 9.47 µgequiv/ml; in assay [7] it was 2.46 µgequiv/ml; in [15], 5.75 µgequiv/ml. For the same compound, the MIC was 10 µg/mL (≈ 21.8 µM) in the assay on Staphylococcus aureus [2], 55.5 µg/mL (≈ 121 µM) against Pseudomonas aeruginosa [4], 7.5 µg/mL (≈ 16.4 µM) against Bacillus subtilis [10] and 34 µg/mL (≈ 74.2 µM) in the assay with Escherichia coli [14]. The zone of inhibition at 100 µg/disc in the assay with Bacillus subtilis [3] was found to be 23 mm; in the assay with Staphylococcus aureus [8], 19 mm; with Escherichia coli [9], 19 mm; in the assay on Pseudomonas aeruginosa [11], 18 mm. Further, the OD came to 0.085 in [6], 0.098 in assay [12] and 0.068 in [13].
For the compound `COc1ccc(C2C(C#N)=C(N)OC3=C2CNc2c3cccc2[N+](=O)[O-])cc1OC` (stereo not drawn), the IC50 in the assay with MCF7 was 56.3 µM; in the assay with A549, 50.6 µM; in assay [5], 124.38 µg/mL (≈ 306 µM). The values for the Activity in assay [1], in assay [7] and in assay [15] were 13.7 µgequiv/ml, 4.04 µgequiv/ml and 9.51 µgequiv/ml, respectively. In addition, the MIC with Staphylococcus aureus [2] turned out to be 40 µg/mL (≈ 98.4 µM); against Pseudomonas aeruginosa [4] it was 150 µg/mL (≈ 369 µM); against Bacillus subtilis [10] it was 20 µg/mL (≈ 49.2 µM); in the assay on Escherichia coli [14], 80.5 µg/mL (≈ 198 µM). Besides, the zone of inhibition at 100 µg/disc came to 15 mm in the assay with Bacillus subtilis [3], 14 mm in the assay with Staphylococcus aureus [8], 12 mm in the assay with Escherichia coli [9] and 13 mm in the assay with Pseudomonas aeruginosa [11]. Besides, the OD in [6] amounted to 0.111; in assay [12] it was 0.157; in [13] it was 0.078.
With `COc1ccc(C2C(C#N)=C(N)OC3=C2CNc2c3cccc2[N+](=O)[O-])c(OC)c1` (stereo not drawn), the IC50 in the assay on MCF7 turned out to be 51.2 µM; with A549, 44.6 µM; in assay [5] it was 122.13 µg/mL (≈ 301 µM). Besides, the results for the Activity in assay [1], in [7] and in assay [15] were 14.2 µgequiv/ml, 4.79 µgequiv/ml and 9.89 µgequiv/ml, respectively. Further, the MIC against Staphylococcus aureus [2] worked out at 40 µg/mL (≈ 98.4 µM); against Pseudomonas aeruginosa [4] it was 150 µg/mL (≈ 369 µM); with Bacillus subtilis [10] it was 20 µg/mL (≈ 49.2 µM); with Escherichia coli [14] it was 42.5 µg/mL (≈ 105 µM). The zone of inhibition at 100 µg/disc in the assay with Bacillus subtilis [3] was determined as 15 mm; in the assay with Staphylococcus aureus [8], 14 mm; in the assay with Escherichia coli [9], 15 mm; with Pseudomonas aeruginosa [11], 13 mm. Moreover, the results for the OD in assay [6], in [12] and in assay [13] were 0.112, 0.162 and 0.08, respectively.
Take `COc1ccc(N2N=C3c4cc(Cl)cc([N+](=O)[O-])c4NCC3C2c2ccc(Cl)cc2)cc1` (stereo not drawn): the figures for the IC50 (in the assay on MCF7; in the assay on A549; in assay [5]) were 25.8 µM, 32 µM and 151.83 µg/mL (≈ 324 µM), respectively. Moreover, the Activity in assay [1] was found to be 8.36 µgequiv/ml; in [7], 1.86 µgequiv/ml; in assay [15], 4.43 µgequiv/ml. The MIC against Staphylococcus aureus [2] is 50 µg/mL (≈ 107 µM); in the assay on Pseudomonas aeruginosa [4], 100 µg/mL (≈ 213 µM); with Bacillus subtilis [10], 50 µg/mL (≈ 107 µM); with Escherichia coli [14], 80.5 µg/mL (≈ 172 µM). Further, the zone of inhibition at 100 µg/disc in the assay with Bacillus subtilis [3] worked out at 14 mm; in the assay with Staphylococcus aureus [8], 13 mm; with Escherichia coli [9], 12 mm; with Pseudomonas aeruginosa [11] it was 13 mm. In addition, the OD in assay [6] was found to be 0.171; in assay [12], 0.253; in assay [13], 0.1.
